Ends that are not written are not given here.
Assays:
S. aureus ATCC 12600 [1] = test: Peritonitis/sepsis mouse model; type: in vivo, CD-1 mice
[2] = Solubility in autoclaved deionized water; type: physicochemical
[3] = tested on: PMA-differentiated human monocytes (THP-1); test: MTT cytotoxicity assay; type: cell-based; details: Ala-scan
[4] = Resistance to proteolytic degradation in human serum; type: in vitro ADME; details: 25% human serum in water
S. aureus ATCC 12600 [5] = test: Skin abscess infection mouse model; type: in vivo, CD-1 mice; details: general indicator of potential toxicity

Molecule | Solubility in autoclaved deionized water [2] | also measured
CNC(C)C1CCC(N)C(OC2C(N)CC(N)C(OC3OCC(C)(O)C(NC)C3O)C2O)O1 (stereo not shown) [gentamicin, reference compound] | – | Slope of intracellular versus extracellular bacterial loads (linear regression) (S. aureus ATCC 12600 [1]; peritoneal lavage, log10 CFU, n = 9 per group): 1.37
FAWWLYKRALAATTIKIKRRK [R2A-Turingcin-46] | Soluble | –
FRWALYKRALAATTIKIKRRK [W4A-Turingcin-46] | Soluble | Cytotoxicity in PMA-differentiated THP-1 cells relative to Turingcin-46 [3]: reduced cytotoxicity
FRWWAYKRALAATTIKIKRRK [L5A-Turingcin-46] | Soluble | Cytotoxicity in PMA-differentiated THP-1 cells relative to Turingcin-46 [3]: reduced cytotoxicity
FRWWLYKRALAATAIKIKRRK [T14A-Turingcin-46] | Soluble | –
FRWWLYKRALAATTAKIKRRK [I15A-Turingcin-46] | Soluble | –
FRWWLYKRALAATTIKAKRRK [I17A-Turingcin-46] | Soluble | –
FRWWLYKRALAATTIKIKRRA [K21A-Turingcin-46] | Soluble | Cytotoxicity in PMA-differentiated THP-1 cells relative to Turingcin-46 [3]: reduced cytotoxicity
FRWWLYKRALAATTIKIKRRK [Turingcin-46] | Soluble | remaining at 1 h, 7 mg mL-1 [4]: ~50%; Body weight change, skin abscess model (S. aureus ATCC 12600 [5]): no significant changes in body weight; Body weight change, peritonitis/sepsis model (S. aureus ATCC 12600 [1]; at the tested dose): no significant changes in body weight
KILIRKILTIIERKLLRSNLKS [Turingcin-12] | Soluble | –
KIWKIKILRINKKTSSIIA [Turingcin-14] | Soluble | –
KKRVYRQKIRLIKKAIFFKKR [Turingcin-18] | Soluble | –
KKVWYIKVKLALALIKNI [Turingcin-3] | Soluble | –
KLRSSKKIFQIAAKFNKLFRRK [Turingcin-26] | Soluble | –
KMWKLRIKLTI [Turingcin-13] | Soluble | –
KQIKQRSIRIKIFKKIL [Turingcin-24] | Soluble | –

Molecule | Solubility in autoclaved deionized water [2] | also measured
KRIKILRKYKWNQQYKKKL [Turingcin-16] | Soluble | –
KRRAARIKQLRFIQQSLREERIIQKLIK [Turingcin-6] | Soluble | –
LIWRRKIFRIKLRI [Turingcin-17] | Soluble | –
QRRVLRFKLNTKIARLINLNI [Turingcin-27] | Soluble | –
RIINIILNRNLKKIILAAAIRNAIRW [Turingcin-22] | Soluble | –
RILRKVWTAWLREAALTIKVKR [Turingcin-9] | Soluble | –
RILRKWSNWWWNNWLIWK [Turingcin-28] | Soluble | –
RLIKAILNRVWKAWAIQKK [Turingcin-2] | Soluble | –
RRLNSKINLYLRIIIALINK [Turingcin-20] | Soluble | –
RRWVHKILLIIIKILA [Turingcin-1] | Soluble | –
RVWKTLRIKVYFARRKQR [Turingcin-25] | Soluble | –
RWWYTSIIKKKLNKIIA [Turingcin-11] | Soluble | –
SRKYRQLAKYIWRNLANKNRLIIKA [Turingcin-15] | Soluble | –
VMRRFFRLLRKIKL [Turingcin-23] | Soluble | –
WAVKSSRIIYTLLRKLKTWFNIKAK [Turingcin-8] | Soluble | –
WYLIRVALIAFKKA [Turingcin-21] | Insoluble | –

More lines, main results first:

Solubility in autoclaved deionized water [2] | Molecule | also measured
Soluble | ARWWLYKRALAATTIKIKRRK [F1A-Turingcin-46] | –
Soluble | FRAWLYKRALAATTIKIKRRK [W3A-Turingcin-46] | –
Soluble | FRWWLAKRALAATTIKIKRRK [Y6A-Turingcin-46] | –
Soluble | FRWWLYARALAATTIKIKRRK [K7A-Turingcin-46] | –
Soluble | FRWWLYKAALAATTIKIKRRK [R8A-Turingcin-46] | –
Soluble | FRWWLYKRAAAATTIKIKRRK [L10A-Turingcin-46] | –
Soluble | FRWWLYKRALAAATIKIKRRK [T13A-Turingcin-46] | –
Soluble | FRWWLYKRALAATTIAIKRRK [K16A-Turingcin-46] | –
Soluble | FRWWLYKRALAATTIKIARRK [K18A-Turingcin-46] | –
Soluble | FRWWLYKRALAATTIKIKARK [R19A-Turingcin-46] | –
Soluble | FRWWLYKRALAATTIKIKRAK [R20A-Turingcin-46] | Cytotoxicity in PMA-differentiated THP-1 cells relative to Turingcin-46 [3]: reduced cytotoxicity
Insoluble | ILARLSSILKLI [Turingcin-4] | –
Insoluble | KILWYRIILIRFQKVW [Turingcin-5] | –
Soluble | KKIIIKFLIFNTKL [Turingcin-19] | –
Soluble | RLKSILLLIVTKINIRLKIA [Turingcin-7] | –
Soluble | RYIRLLVILKLA [Turingcin-10] | –
